Measurements as given in US20240270801A1, “EPITOPE PEPTIDE OF HUMAN ALPHA-SYNUCLEIN AND PHARMACEUTICAL COMPOSITION INCLUDING SAID PEPTIDE” (Sumitomo Pharma Co., Ltd., priority 2021, published 2024).
No end group written: not given here. KLH = keyhole limpet hemocyanin

Columns and labels:
aggregated human αSyn [1] = test: Antibody-inducing ability in cynomolgus monkeys: ELISA antibody titer with respect to aggregated human αSyn; format: in vivo; conditions: i.m. three times at 2-week interval, Alum; AJ conjugates 2,000 μg/monkey, KLH-DMPVDPDN 75 μg/monkey; FIG. 4B
Procedure: The antibody-inducing ability of the AJ-human αSyn peptide conjugate with respect to human αSyn and aggregated human αSyn in cynomolgus monkeys was evaluated. The AJ-human αSyn peptide conjugates (AJ-p54, AJ-p150, AJ-p283, AJ-p142, and AJ-p273) (2,000 μg/monkey) and KLH-DMPVDPDN (75 μg/monkey) were intramuscularly administered to cynomolgus monkeys (males, 3 to 7 years old, SNBL, Ltd.) three times at a 2-week interval using Alum (InvivoGen, 200 μg/monkey) as an adjuvant. Blood was collected before administration and 4, 6, 8, and 10 weeks after the first administration to recover the serum. ELISA was performed by the following method.
96-well plates were coated with human αSyn (Sigma-Aldrich) or aggregated human αSyn (StressMarq Biosciences Inc.) at 0.2 μg/well or 15 ng/well. After washing with PBST once, blocking was performed with 3% skim milk (FUJIFILM Wako Pure Chemical Corporation). After washing with PBST three times, diluted serum was added to cause a reaction at room temperature for 1 hour. Furthermore, after washing with PBST three times, Goat anti-Monkey IgG-HRP (Bio-Rad Laboratories, Inc.) was added to cause a reaction at room temperature for 1 hour. […] An equal volume of a TMB Stop Solution (KPL) was added to stop the reaction, and the absorbance at 450 nm was measured.

aggregated human αSyn [2] = biological target: aggregated human αSyn (Homo sapiens, UniProt P37840); test: Aggregated human αSyn-neutralizing effect of antibody induced in mice: phosphorylation of human αSyn in SH-SY5Y cells; format: cell-based; set-up: purchased Stress Marq (StressMarq Biosciences Inc.); conditions: antibody (100 μg/mL) induced in C57BL/6 mice by the vaccine; FIG. 1B, isotype control = 100
Procedure: The aggregated human αSyn-neutralizing effect of the antibody induced in the mice by the AJ-human αSyn peptide conjugate (AJ-p54) produced in Example 1 was evaluated. Physiological saline or the AJ-human αSyn peptide conjugate (250 μg/mouse) was intramuscularly administered to C57BL/6 mice (males, 6 weeks old, CLEA Japan, Inc.) four times at a 2-week interval using CFA (DIFCO) as an adjuvant. Furthermore, KLH-DMPVDPDN (25 μg/mouse) was administered using Alum (InvivoGen, 50 μg/mouse) as an adjuvant. Two weeks after the fourth administration, serum was recovered. After recovering the antibodies comprised in the serum by Protein G HP SpinTrap (Cytiva), the human αSyn- and aggregated human αSyn-neutralizing effect was evaluated by a method described below.
As the human αSyn- and aggregated human αSyn-neutralizing effect, the influence on phosphorylation of human αSyn in SH-SY5Y cells (ATCC) was evaluated. The SH-SY5Y cells were seeded in a 96-well plate at 2×10^4 cells/well and cultured under the conditions of 37° C. and 5% CO2. […] After fixing the cells with a 4% paraformaldehyde/phosphate buffer solution (FUJIFILM Wako Pure Chemical Corporation), phosphorylated human αSyn was stained with a fluorescence-labeled anti-phosphorylated αSyn antibody (Cell Signaling). The amount of phosphorylated human αSyn was evaluated by image analysis using ArrayScan (Thermo Fisher Scientific Inc.). […]

human αSyn = test: Antibody-inducing ability in mice: ELISA antibody titer of immune serum with respect to human αSyn; format: in vivo, mouse
Outline: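 Female balb/c mice, 6 weeks old, immunized i.m. twice 2 weeks apart with peptide conjugates (250 μg/mouse; KLH-DMPVDPDN 25 μg/mouse) plus Alum 50 μg/mouse. Serum taken 2 weeks after second dose. IgG titer measured by ELISA on human αSyn (0.2 μg/well) or aggregated αSyn (15 ng/well), A450; titers expressed as log relative to control conjugate.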

With “KLH-C-DMPVDPDN ({KLH}-CDMPVDPDN) [KLH-DMPVDPDN, comparison vaccine, reference compound]” the “Induction of the antibody to aggregated human αSyn in cynomolgus monkeys” value (aggregated human αSyn [1]) was “not induced”, the “Phosphorylation of human αSyn in SH-SY5Y cells to which aggregated human αSyn was added” value (aggregated human αSyn [2]) was “inhibited” and the “Induction of the antibody to human αSyn in the mouse serum (in words)” value (human αSyn; Example 2, balb/c mice) was “induction of the antibody to human αSyn was also confirmed”. The “Antibody titer with respect to human αSyn (N = 4 − 6, mean ± standard deviation)” value (human αSyn; Example 2, balb/c mice, i.m. twice at 2-week interval, Alum, AJ conjugates 250 μg/mouse, KLH-DMPVDPDN 25 μg/mouse, serum 2 weeks after second administration) was 5461 ± 2365, the “Induction of the antibody to human αSyn (in words)” value (human αSyn; Example 4, balb/c mice) was “induced the antibody to human αSyn” and the “Antibody titer with respect to human αSyn (mean ± standard deviation)” value (human αSyn; Example 4, balb/c mice, i.m. twice at 2-week interval, Alum, AJ conjugates 250 μg/mouse, KLH-DMPVDPDN 25 μg/mouse) was 1792 ± 1536.
